According to patent publication US7087790B2, “Benzotropolone derivatives and modulation of inflammatory response” (Rutgers, The State University of New Jersey, priority 2003, dated 2006):
Where “and” joins values, the source holds several entries; their conditions need not be identical. Equal entries are not always repeated.

Test system: not listed separately
Assay: Oxygen radical absorbance capacity (ORAC) assay with fluorescein probe and AAPH
Details: Trolox equivalents; 0.5 μM; 75 mM phosphate buffer pH 5.5; mean ± SD, n = 4 (a: n = 3)
Excerpt: In another aspect, the present invention also discloses antioxidant activities of the compositions having benzotropolone containing compounds disclosed herein. Oxygen radical absorbence capacity (ORAC) assay, which is a measure of free radical scavenging ability, is simple and sensitive method to measure the oxygen-radical absorbing capacity. It has been widely used for measuring the antioxidant activity of food and nutraceutical components. ORAC assay was developed by Cao et al., 1993, Free Radical Biol. Med. 14:303–311. In the assay, β-phycoerythrin (β-PE) was used as fluorescent indicator protein and 2,2′-Azobis(2-amidinopropane) dihydrochloride (AAPH) used as a peroxy radical generator. β-PE is a photosynthetic protein found in red algae. β-PE has been used as fluorescent probe because of its distinct excitation and emission wavelength (Ex. 540 nm, Em. 565 nm). The use of β-PE as a fluorescent probe, however, has certain defects. When reactive oxygen species attack the β-PE, it can easily lose the fluorescence. Furthermore, the ORAC value can be affected by possible interaction between polyphenols and proteins. Recently, Ou et al., 2001, J. Agric. Food Chem. 49:4619–4626 reported an improved ORAC method using fluorescein, instead of β-PE, as a fluorescent probe. Accordingly, fluorescein is used as a fluorescent probe in ORAC assays for testing the antioxidant activities of the compounds of the present invention.
Oxygen radical absorbance capacity (ORAC) assay was performed to examine antioxidant activity of individual theaflavins and epitheaflavic acids. All reagents were prepared in 75 mM phosphate buffer (pH 5.5). Reaction mixture consists of 3 mL of Fluorescein solution (8.16×10^−5 mM), 500 μL AAPH (153 mM), and 500 μL of sample solution or blank. Once AAPH was added, fluorescence was measured every 1 min using Hitachi Model F-3010 fluorescence spectrophotometer with emission and excitation wavelength of 515 and 493 nm, respectively. The ORAC value was calculated based on the area under the fluorescence decay curve of fluorescein in the presence of the test compound comparing to the area generated by standard Trolox and blank. The net area under the curve and ORAC values were calculated by the formula presented by Cao et al (Cao et al. 1993).
The relative ORAC value (Trolox equivalents) was calculated with following equation.
The area under curve (AUC) was calculated according to following equation. AUC=1+f1/f0+f2/f0+f3/f0+f4/f0 . . . +f119/f0+f120/f0 f0 is the initial fluorescence reading at 0 min, fi is the fluorescence reading at time i.
Quenching curves representing the peroxyl radical absorbing activity of Trolox in various concentration (0˜4 μM) was used as a standard (data not shown). The net area of quenching curve increased proportionally to an increment of the Trolox concentration. Quenching curves of theaflavins and EGCG were examined (data not shown). […] Quenching curves of epitheaflavic acids and EGCG were also examined. (data not shown).

First: O=C(O[C@@H]1Cc2c(O)cc(O)cc2O[C@@H]1c1cc(O)c(O)c(O)c1)c1cc(O)c(O)c(O)c1 [EGCG, (−)-epigallocatechin-3-gallate, reference compound]
Second: O=c1c(O)cc([C@H]2Oc3cc(O)cc(O)c3C[C@H]2O)cc2c([C@H]3Oc4cc(O)cc(O)c4C[C@H]3O)cc(O)c(O)c12 [Theaflavin]
The “Relative ORAC value” of the first is lower: 7.69 ± 0.35 for the first, 11.60 ± 0.30 for the second.

First: Epitheaflavic acid
Second: O=C(O[C@@H]1Cc2c(O)cc(O)cc2O[C@@H]1c1cc(=O)c(O)c2c(O)c(O)cc([C@H]3Oc4cc(O)cc(O)c4C[C@H]3O)c2c1)c1cc(O)c(O)c(O)c1 [Theaflavin 3-gallate]
The “Relative ORAC value” of the first is lower: 9.74 ± 0.38 for the first, 13.17 ± 0.18 for the second.

Going from Theaflavin 3′-gallate to O=c1c(O)cccc2cc(O)c(O)c(O)c12 [Purprogallin, Purpurogallin], the “Relative ORAC value” falls from 12.40 ± 0.58 to 6.01 ± 0.42.

For “Theaflavin 3,3′-digallate [Theaflavin 3,3′-gallate]”, the “Relative ORAC value” was 13.54 ± 0.69.

Test system: TPA-induced ear edema
Assay: not given
Details: topical; cited from earlier work

In the case of “Theaflavin 3,3′-digallate [Theaflavin 3,3′-gallate]”, the “anti-inflammatory activity (rank order, Liang et al.)” value is listed as “stronger than TF-2”.

Test system: TPA-induced Edema of Mouse Ear
Assay: TPA-induced ear edema assay (skin inflammation model)
Format: in vivo, female CD-I mice
Details: 0.5 μmol topical in acetone 20 min before TPA (1 nmol); 6 mm punches 5 h later
Excerpt: In yet another aspect of the invention, the present invention is directed to a method of preventing and/or treating inflammation in an animal using compositions having benzotropolone containing compounds disclosed herein. […] The anti-inflammatory activity (or anti-edema) of benzotropolone containing compounds of the present invention can be tested using 12–0-tetradecanoylphorbol- 13-acetate (TPA) TPA-induced inflammatory skin edema assay. Application of TPA on skin results in induction of omithine decarboxylase activity that increases the polyamine level and epidermal hyperplasia, and inflammation, and pro-inflammatory cytokine (e.g., IL-1β) and prostaglandins (prostaglandin E2) production at the site. The benzotropolone containing compounds can be applied either prior to or subsequent to or simultaneously with the topical application of TPA to skin tissue (e.g. mice ear).
The TPA (12-O-tetradecanoylphorbol-13-acetate)-induced ear edema assay was carried out to examine anti-inflammatory activity of benzotropolone-containing compounds in skin inflammation model. The female CD-I mice (24-25 days old) were topically treated with 20 μl of acetone and benzotropolone-containing compounds in 20 μl of acetone at 20 minutes before topical application of 20 μl of acetone or TPA (1 nmol) in 20 μl of acetone. Then, five hours later, all mice were sacrificed by cervical dislocation. The ear punches (6 mm in diameter) were taken and weighed.

O=C(O[C@@H]1Cc2c(O)cc(O)cc2O[C@@H]1c1cc(O)c(O)c(O)c1)c1cc(O)c(O)c(O)c1 [EGCG, (−)-epigallocatechin-3-gallate, reference compound] and Epitheaflavic acid are within error of each other in “Average weight of ear punches (mg) (Mean ± SE)” value (“Average weight … (Mean ± SE)” below): 8.79 ± 0.54 mg for the first, 9.39 ± 0.43 mg for the second.

O=C(O)c1cc(O)c(=O)c2c(O)c(O)ccc2c1 [GACa] and O=C(O[C@@H]1Cc2c(O)cc(O)cc2O[C@@H]1c1cc(=O)c(O)c2c(O)c(O)cc([C@H]3Oc4cc(O)cc(O)c4C[C@H]3O)c2c1)c1cc(O)c(O)c(O)c1 [Theaflavin 3-gallate] are within error of each other in “Average weight … (Mean ± SE)” value: 8.61 ± 0.54 mg for the first, 7.86 ± 0.24 mg for the second.

Theaflavate A and Theaflavate B are within error of each other in “Average weight … (Mean ± SE)” value: 8.52 ± 0.26 mg for the first, 8.35 ± 0.32 mg for the second.

Compared with Neotheaflavate A, Theaflavin 3′-gallate is lower in “Average weight … (Mean ± SE)” value: 8.65 ± 0.64 mg for the first, 7.44 ± 0.18 mg for the second.

Compared with “Epigallocatechinocatechol gallate [EGCGCa]”, O=C(OC1Cc2c(O)cc(O)cc2OC1c1cc(O)c(=O)c2c(O)c(O)cc(C3Oc4cc(O)cc(O)c4CC3O)c2c1)c1cc(O)c(O)c(O)c1 (stereo not drawn) [Neotheaflavin 3-gallate] is higher in “Average weight … (Mean ± SE)” value: 7.49 ± 0.12 mg for the first, 8.42 ± 0.42 mg for the second.

Going from O=c1c(O)cc([C@H]2Oc3cc(O)cc(O)c3C[C@H]2O)cc2c([C@H]3Oc4cc(O)cc(O)c4C[C@@H]3O)cc(O)c(O)c12 [Neotheaflavin] to “Theaflavin 3,3′-digallate [Theaflavin 3,3′-gallate]”, the “Average weight … (Mean ± SE)” value falls from 10.58 ± 0.73 mg to 7.03 ± 0.18 mg.

With O=c1c(O)cc([C@H]2Oc3cc(O)cc(O)c3C[C@H]2O)cc2c([C@H]3Oc4cc(O)cc(O)c4C[C@H]3O)cc(O)c(O)c12 [Theaflavin] the “Average weight … (Mean ± SE)” value was 7.90 ± 0.42 mg and 8.23 ± 0.40 mg.
With O=C(O)c1cc(O)c(=O)c2c(O)c(O)cc([C@H]3Oc4cc(O)cc(O)c4C[C@@H]3O)c2c1 [Theaflavic acid] the “Average weight … (Mean ± SE)” value was 9.28 ± 0.37 mg and 8.95 ± 0.43 mg.

Same assay, conditions: 0.5 μmol topical in acetone 20 min before TPA (1 nmol); ear punch weight 5 h later

Compared with O=C(O[C@@H]1Cc2c(O)cc(O)cc2O[C@@H]1c1cc(O)c(O)c(O)c1)c1cc(O)c(O)c(O)c1 [EGCG, (−)-epigallocatechin-3-gallate, reference compound], Epitheaflavic acid is higher in Percent inhibition %: 68.3% for the first, 74.4% for the second.

Compared with O=C(O)c1cc(O)c(=O)c2c(O)c(O)ccc2c1 [GACa], O=C(O[C@@H]1Cc2c(O)cc(O)cc2O[C@@H]1c1cc(=O)c(O)c2c(O)c(O)cc([C@H]3Oc4cc(O)cc(O)c4C[C@H]3O)c2c1)c1cc(O)c(O)c(O)c1 [Theaflavin 3-gallate] is higher in Percent inhibition %: 83.3% for the first, 91.5% for the second.

Going from Theaflavate A to Theaflavate B, the Percent inhibition % rises from 87.2% to 89.2%.

First: Neotheaflavate A
Second: Theaflavin 3′-gallate
The Percent inhibition % of the first is lower: 85.7% for the first, 100.0% for the second.

First: Epigallocatechinocatechol gallate [EGCGCa]
Second: O=C(OC1Cc2c(O)cc(O)cc2OC1c1cc(O)c(=O)c2c(O)c(O)cc(C3Oc4cc(O)cc(O)c4CC3O)c2c1)c1cc(O)c(O)c(O)c1 (stereo not drawn) [Neotheaflavin 3-gallate]
The Percent inhibition % of the first is higher: 96.3% for the first, 88.4% for the second.

Going from O=c1c(O)cc([C@H]2Oc3cc(O)cc(O)c3C[C@H]2O)cc2c([C@H]3Oc4cc(O)cc(O)c4C[C@@H]3O)cc(O)c(O)c12 [Neotheaflavin] to “Theaflavin 3,3′-digallate [Theaflavin 3,3′-gallate]”, the Percent inhibition % rises from 62.9% to 100.0%.

With O=c1c(O)cc([C@H]2Oc3cc(O)cc(O)c3C[C@H]2O)cc2c([C@H]3Oc4cc(O)cc(O)c4C[C@H]3O)cc(O)c(O)c12 [Theaflavin] the Percent inhibition % was 89.2% and 87.8%.
For O=C(O)c1cc(O)c(=O)c2c(O)c(O)cc([C@H]3Oc4cc(O)cc(O)c4C[C@@H]3O)c2c1 [Theaflavic acid], the Percent inhibition % was 78.3% and 79.5%.
